Blank lines part the entries; values can stand above or below the compound they belong to.
Legend:
Assay type in all cases: physicochemical
[1] = particle diameter of modified vesicles; conditions: for average diameter: ultrasonicator (Example 5 series)
[2] = viscosity of vesicle dispersion on addition of calcium ion (rotating viscometer); conditions: 5 mM calcium chloride
Description: The stability of the vesicles was evaluated as below. The precipitate of the vesicles prepared by centrifuge was dispersed again into saline by a vortex mixer. To this sample, calcium chloride (as calcium ion) was added to be 5 mM, and the viscosity of the dispersion was measured with a rotating viscometer (Vismetron VS-AK). The viscosity of 5 cp was not changed by addition of the calcium ion.
To this dispersion, calcium chloride (as calcium ion) was added to be 5 mM, and the viscosity of the dispersion was measured with a rotating viscometer (Vismetron VS-AK).
To this dispersion, calcium chloride (as calcium ion) was added to be 5 mM, and the viscosity of the dispersion was measured with a rotating viscometer (Vismetron VS-AK). The viscosity of 5 cp was not changed by addition of the calcium ion. On the contrary, the dispersion of the vesicles prepared from powdery lipid mixture not containing DACOA (DPPC:cholesterol:distearylphosphatidic acid=10:9:0.9 in molar ratio) aggregated immediately on addition of calcium ion because of negative charge on the surface of the vesicle, causing the viscosity rise up to 11 cp.
The stability of the dispersion of the DOLG-modified vesicles having adjusted particle diameters was evaluated by addition of 5 mM calcium chloride and observing the viscosity change. The viscosity was measured at 37° C. by a rotating viscometer. […] On the contrary, a dispersion of unmodified vesicles prepared from a powdery lipid mixture containing no DOLG (DPPC:cholesterol:stearic acid=7:7:2 in molar ratio) caused immediate aggregation of the vesicles on addition of calcium ion in the same manner as above because of the negative charge on the surface of the vesicle, and the viscosity increased up to 11 cp. Accordingly, the sufficient effect of the DOLG, a vesicle stabilizer of the present invention, was confirmed in inhibiting the aggregation of vesicles by calcium ion.

[3] = introduction ratio into the vesicle (phenol-sulfuric acid method); conditions: 2 mol % modifier; for introduction ratio: 4 °C, 24 hours
Description: The ratio of introduction of the stabilizer into the vesicles is determined by treating the dispersion of the vesicles by gel filtration or ultracentrifuge to remove the superfluous stabilizer which has not been introduced into the vesicles, and quantitatively determining saccharide in respective fractions by a phenol-sulfuric acid method. The stabilizer of the present invention, when employed in an amount of from 2 to 10 mol %, is introduced into the vesicles in a ratio of 90% or more.
The stability of the vesicle dispersion which had been passed through the 0.05 μm filter was evaluated by measuring the change of absorbance (turbidity) at 500 nm with time on standing at room temperature by means of a UV-visible light spectrophotometer.
2.4 mg of DOMG prepared in the same manner as in Example 11 was dissolved in 1 ml of chloroform. This solution was mixed with a solution of 100 mg of DPPC in 5 ml of chloroform, thereby DOMG being 2 mol % of DPPC. The solution mixture was evaporated by means of an evaporator to form a thin film on the inside wall of an eggplant-shape flask. Then 10 ml of pure water was added thereto so as to obtain a concentration of 1.0% by weight of the vesicles. The mixture was stirred with glass beads by means of a vortex mixer, and subsequently treated by an extruder to prepare a dispersion of DOMG-modified DPPC vesicles having controlled diameters of particles. A portion of the resulting dispersion was diluted to a fivefold volume with pure water to prepare a dispersion having vesicle concentration of 0.2% by weight.
The two dispersions of the DOMG-modified vesicles having concentrations of 1.0% by weight and 0.2% by weight were left standing at 4° C. for 24 hours, and were ultracentrifuged (300000 G, 60 minutes). The free DOMG in the supernatant was determined by a phenol-sulfuric acid method, and therefrom the ratio of introduction DOMG to the vesicles was calculated.
As the results, the introduction ratios were 94.3%, and 77.0% respectively at the vesicle concentrations of 1.0% by weight and 0.2% by weight. The results are shown in Table 4 together with the results of Comparative Examples 6 and 7 described later in which an oligosaccharide derivative was employed.

[4] = turbidity increase, standing at 4 °C for 24 hours; conditions: for turbidity increase rate relative to unmodified DPPC vesicle dispersion (100%): Table 3 / Example 11 series
[5] = dispersion stability: turbidity increase at 500 nm, standing at 25 °C for 3 days
[6] = aggregation on addition of dextran: turbidity at 800 nm; conditions: 2.5 wt % dextran (MW 40000), DPPC:cholesterol:stearic acid:STEC 7:7:2:2
Description: The precipitation of the vesicles was dispersed again to be 5 wt %, and thereto dextran (molecular weight of 40000) was added as a colloid osmotic pressure controller. The stability of the dispersion was observed by determination of turbidity at 800 nm.
The stability of the MPDSPE-modified vesicle was evaluated by adding, to the above dispersion, dextran (molecular weight: 4000) which is a colloid osmotic pressure controller, and measuring the turbidity from the absorbance at 800 nm. […] This proves the aggregation inhibition effect of the MPDSPE of the vesicle stabilizer of the present invention.
The resulting dispersion was treated with a microfluidizer at 2500 psi at 4° C. for 15 minutes to obtain a dispersion of SDSPE-modified vesicles having average particle diameter of 350±95 nm. This dispersion was centrifuged (100000 G, 30 minutes) to obtain a precipitate of vesicles. The precipitate was dispersed again into a solution to be 5% by weight. Occurrence of aggregation of the vesicles was tested by adding dextran (molecular weight 40000) to the dispersion and measuring the turbidity change at 800 nm. […] Therefrom the modification was confirmed to be effective to inhibition of aggregation caused by dextran.
5.0 g of a powdery lipid mixture containing the above STEC (DPPC:cholesterol:stearic acid:STEC=7:7:2:2 in molar ratio) was dispersed in 100 ml of saline, and the dispersion was stirred at 4° C. for 24 hours. The resulting dispersion was treated with a microfluidizer at 2500 psi at 4° C. for 15 minutes. This dispersion was centrifuged (10000 G, 30 minutes) to obtain precipitate of STEC-modified vesicles. The precipitate was dispersed again in to saline to be 5 wt %. The stability of the vesicles was evaluated by adding 2.5 wt % solution of dextran (molecular weight 40000) to the above vesicle layer and measuring the turbidity change at 800 nm. The STEC-modified vesicles caused the turbidity increase of 58% of that of the unmodified vesicles (DPPC:cholesterol:stearic acid=7:7:2 in molar ratio), thereby the inhibition effect of STEC, a vesicle stabilizer of the present invention being confirmed.

[7] = mixed lipid vesicles, 0.2 μm filter by extruder
[8] = DPPC vesicle, 5 mol % modifier (Example 8 series)
[9] = Table 2 / Example 8 series, 5 mol % modifier
[10] = DPPC vesicle, about 5 mol % modifier
[11] = Table 1 / Example 5 series, about 5 mol % modifier

Compound: CCCCCCCCCCCCCCCCCCOCC(COC1O[C@H](CO)[C@@H](O[C@H]2O[C@H](CO)[C@@H](O)[C@H](O)[C@H]2O)[C@H](O)[C@H]1O)OCCCCCCCCCCCCCCCCCC (stereo partly drawn) [DOMG, 1,2-di-octadecyl-O-α(β)-maltosyl-glycerol]
particle diameter ([1]; DPPC vesicle, about 5 mol % modifier, extruder 0.05 μm (Example 11)): 35±15 nm
introduction ratio ([3]; vesicle concentration 0.2 wt %): 77.0%
introduction ratio ([3]; vesicle concentration 1.0 wt %): 94.3%
increase of the turbidity depending on amount of modifier (order) ([4]; 5-20 mol %): 5 mol %>10 mol %>15 mol %>20
vesicle stabilization effect (in words) ([4]; 5 mol % modifier, 24 hours): not so effective
turbidity increase rate relative to unmodified DPPC vesicle dispersion (100%) ([4]; 5 mol % modifier, 24 hours): 45.5%
turbidity increase rate relative to unmodified DPPC vesicle dispersion (100%) ([4]; 10 mol % modifier, 24 hours): 28.9%
turbidity increase rate relative to unmodified DPPC vesicle dispersion (100%) ([4]; 15 mol % modifier, 24 hours): 16.0%
turbidity increase rate relative to unmodified DPPC vesicle dispersion (100%) ([4]; 20 mol % modifier, 24 hours): 11.2%

Compound: CCCCCCCCCCCCCCCCNC(=O)[C@H](O)[C@@H](O)[C@H](O[C@H]1O[C@H](CO)[C@@H](O[C@H]2O[C@H](CO)[C@@H](O[C@H]3O[C@H](CO)[C@@H](O[C@H]4O[C@H](CO)[C@@H](O)[C@H](O)[C@H]4O)[C@H](O)[C@H]3O)[C@H](O)[C@H]2O)[C@H](O)[C@H]1O)[C@H](O)CO [MPCA, maltopentaose cetyl amide]
average particle diameter [1, 8]: 32±9 nm
average diameter [1, 10]: 32±7 nm
turbidity increase rate relative to unmodified DPPC vesicle dispersion (100%) [5, 11]: 6.3%
turbidity increase rate relative to unmodified DPPC vesicle dispersion (100%) [5, 9]: 12.7%
turbidity increase rate relative to unmodified DPPC vesicle dispersion (100%) ([5]; Table 2 / Example 8 series, 5 mol % modifier, listed as MCPA): 10.3%
turbidity rise / aggregation inhibiting effect (in words) ([5]; about 5 mol % modifier): little rise in turbidity

Compound: CC(C)CCC[C@@H](C)[C@H]1CC[C@H]2[C@@H]3CC=C4C[C@@H](OCCOCCOCCOCCOC5O[C@H](CO)[C@@H](O[C@@H]6O[C@H](CO)[C@@H](O)[C@H](O)[C@H]6O)[C@H](O)[C@H]5O)CC[C@]4(C)[C@H]3CC[C@]12C (stereo partly shown) [STEC, cellobiosyl tetraethyleneglycosyl cholesterol]
turbidity increase on dextran addition relative to unmodified vesicles [6]: 58%

Compound: Maltopentaose monopalmitate [MPMP, reference compound]
average particle diameter [1, 8]: 34±12 nm
average diameter [1, 10]: 34±12 nm
introduction ratio in comparison with DOMG (in words) [3]: low in comparison with that of DOMG
introduction ratio ([3]; vesicle concentration 0.2 wt %): 48.5%
introduction ratio ([3]; vesicle concentration 1.0 wt %): 75.8%
turbidity increase rate relative to unmodified DPPC vesicle dispersion (100%) ([4]; 5 mol % modifier, 24 hours): 13.5%
turbidity increase rate relative to unmodified DPPC vesicle dispersion (100%) [5, 11]: 12.7%
turbidity increase rate relative to unmodified DPPC vesicle dispersion (100%) [5, 9]: 11.2%

Continued, in another order:

average particle diameter [1, 7]: 200 nm
viscosity change on addition of calcium ion (in words) [2]: not changed
viscosity of the dispersion with calcium ion ([2]; Vismetron VS-AK): 5 cp
Compound: CCCCCCCC/C=C\CCCCCCCCNC(=O)[C@H](NC(C)=O)[C@@H](O)[C@H](O[C@@H]1O[C@H](CO)[C@@H](O)[C@H](O)[C@H]1NC(C)=O)[C@H](O)CO [DACOA, di-N-acetylchitobiose oleylamine]

average particle diameter [1, 7]: 200 nm
inhibition of aggregation of vesicles by calcium ion (in words) [2]: inhibited nearly completely
viscosity change on addition of calcium ion (in words) [2]: not changed at all
viscosity of the dispersion with calcium ion ([2]; Vismetron VS-AK): 5 cp
Compound: CCCCCCCCCCCCCCCCCCNC(=O)[C@H](O)[C@@H](O)[C@H](O)[C@H](O)CO[C@H]1O[C@H](CO[C@H]2O[C@H](CO[C@H]3O[C@H](CO[C@H]4O[C@H](CO[C@H]5O[C@H](CO)[C@@H](O)[C@H](O)[C@H]5O)[C@@H](O)[C@H](O)[C@H]4O)[C@@H](O)[C@H](O)[C@H]3O)[C@@H](O)[C@H](O)[C@H]2O)[C@@H](O)[C@H](O)[C@H]1O [IHSA, Isomaltohexose stearylamide]

average particle diameter [1, 8]: 41±19 nm
average particle diameter ([1]; DPPC vesicle, 10 mol % modifier (Example 8 series)): 35±13 nm
average particle diameter (in words) ([1]; DPPC vesicle, 15 mol % (MCA also 25 mol %) modifier): Nearly the same diameters
average particle diameter ([1]; DPPC vesicle, 20 mol % modifier (Example 8 series)): 36±10 nm
turbidity increase rate relative to unmodified DPPC vesicle dispersion (100%) [5, 9]: 47.8%
turbidity increase rate relative to unmodified DPPC vesicle dispersion (100%) ([5]; Table 2 / Example 8 series, 10 mol % modifier): 32.5%
turbidity increase rate relative to unmodified DPPC vesicle dispersion (100%) ([5]; Table 2 / Example 8 series, 15 mol % modifier): 19.9%
turbidity increase rate relative to unmodified DPPC vesicle dispersion (100%) ([5]; Table 2 / Example 8 series, 20 mol % modifier): 15.6%
turbidity increase rate relative to unmodified DPPC vesicle dispersion (100%) ([5]; Table 2 / Example 8 series, 25 mol % modifier): 17.2%
Compound: CCCCCCCCCCCCCCCCNC(=O)[C@H](O)[C@@H](O)[C@H](O[C@H]1O[C@H](CO)[C@@H](O)[C@H](O)[C@H]1O)[C@H](O)CO [MCA, maltose cetyl amide]
increase of the turbidity depending on amount of modifier (order) ([5]; 5-25 mol %): 5 mol %>10 mol %>15 mol %>20 mol % ≤25 mol %

introduction ratio in comparison with DOMG (in words) [3]: low in comparison with that of DOMG
introduction ratio ([3]; vesicle concentration 0.2 wt %): 70.9%
introduction ratio ([3]; vesicle concentration 1.0 wt %): 83.2%
turbidity increase rate relative to unmodified DPPC vesicle dispersion (100%) ([4]; 5 mol % modifier, 24 hours): 12.1%
Compound: Dioctadecylmaltopentaosyl glycerol [DOMPG]

average diameter [1, 10]: 38±8 nm
turbidity increase rate relative to unmodified DPPC vesicle dispersion (100%) [5, 11]: 65.4%
Compound: Maltopentaose dipalmitate [MPDP, reference compound]

viscosity change on addition of calcium ion (in words) [2]: without viscosity increase
viscosity of the dispersion with calcium ion ([2]; 37 °C, shear rate 1.15 sec^-1): 5 cp
Compound: dioctadecyl lactosyl glycerol [DOLG]

From patent US5472951A, “Stabilizer for phospholipid vesicles” (Chiba Flour Milling Co., Ltd., priority 1992, dated 1995)
